Assay results from ChEMBL document CHEMBL4411264, “Methionine-Containing Rhabdopeptide/Xenortide-like Peptides from Heterologous Expression of the Biosynthetic Gene Cluster kj12ABC in Escherichia coli” (J Nat Prod, 2018).
Square brackets hold non-standard residues; d marks the D form. Peptide text beside a SMILES is read from it. * marks the point of attachment. NHPhenethyl = c1ccc(CCN*)cc1; NMeM = CN[C@@H](CCSC)C(=O)O; NMeV = CN[C@H](C(=O)O)C(C)C

Assays:
Plasmodium falciparum = test: Antiplasmodial activity against Plasmodium falciparum NF54 erythrocytic stage assessed as reduction in [3H]hypoxanthine incorporation preincubated for 48 hrs followed by [3H]hypoxanthine addition and measured after 24 hrs by liquid scintillation counting method; type: functional, organism-based
Leishmania donovani = test: Antileishmanial activity against Leishmania donovani MHOM/ET/67/L82 axenic amastigotes after 72 hrs by alamar blue staining based fluorescence assay; type: functional, organism-based; details: MHOM/ET/67/L82, 72 h
[1] = system: Trypanosoma brucei rhodesiense; test: Antitrypanosomal activity against Trypanosoma brucei rhodesiense STIB900 bloodstream forms after 72 hrs by Alamar blue staining-based fluorometric analysis; type: functional, organism-based; details: STIB900, 72 h
Trypanosoma cruzi = test: Antiparasitic activity against Trypanosoma cruzi Tulahuen C4 trypomastigotes infected in rat L6 cells after 96 hrs by CPRG/Nonidet reagent based photometric analysis; type: functional, organism-based; details: Tulahuen C4, L6, 96 h
L6 = test: Cytotoxicity against rat L6 cells assessed as reduction in cell viability after 72 hrs by Alamar blue staining-based fluorometric analysis; details: L6, 72 h

| SMILES | IC50 (Plasmodium falciparum) [µM] | IC50 [1] [µM] | IC50 (Trypanosoma cruzi) [µM] | IC50 (Leishmania donovani) [µM] | IC50 (L6) [µM] |
| --- | --- | --- | --- | --- | --- |
| CN[C@H](C(=O)N[C@H](C(=O)N(C)[C@H](C(=O)N(C)[C@H](C(=O)N(C)[C@@H](CCSC)C(=O)NCCc1ccccc1)C(C)C)C(C)C)C(C)C)C(C)C (H-[NMeV]V[NMeV][NMeV][NMeM]-NHPhenethyl) | 6.6 | 4.3 | 53 | > 100 | 71.2 |
| CN[C@H](C(=O)N[C@H](C(=O)N(C)[C@H](C(=O)N(C)[C@H](C(=O)NCCc1ccccc1)C(C)C)C(C)C)C(C)C)C(C)C (H-[NMeV]V[NMeV][NMeV]-NHPhenethyl) | 5.3 | 10.5 | 69.4 | > 100 | 89.1 |
| COc1cc([C@@H]2c3cc4c(cc3[C@H](O)[C@H]3COC(=O)[C@H]23)OCO4)cc(OC)c1OC [PODOFILOX] | – | – | – | – | 0.01 |
| CSCC[C@@H](C(=O)N(C)[C@H](C(=O)N(C)[C@H](C(=O)NCCc1ccccc1)C(C)C)C(C)C)N(C)C(=O)[C@@H](N)C(C)C (H-V[NMeM][NMeV][NMeV]-NHPhenethyl) | 7.9 | 8.5 | 62.9 | > 100 | 75.2 |
| CN[C@H](C(=O)N[C@H](C(=O)N(C)[C@H](C(=O)N(C)[C@@H](CCSC)C(=O)NCCc1ccccc1)C(C)C)C(C)C)C(C)C (H-[NMeV]V[NMeV][NMeM]-NHPhenethyl) | 10.9 | 12.3 | 75 | > 100 | > 100 |

The remaining molecules from weak to strong by IC50 (Trypanosoma cruzi), led by results:

| IC50 (Plasmodium falciparum) [µM] | IC50 [1] [µM] | IC50 (Trypanosoma cruzi) [µM] | SMILES | IC50 (Leishmania donovani) [µM] | IC50 (L6) [µM] |
| --- | --- | --- | --- | --- | --- |
| 4.6 | 1.4 | 26.2 | CN[C@H](C(=O)N[C@H](C(=O)N(C)[C@H](C(=O)N(C)[C@H](C(=O)N(C)[C@H](C(=O)NCCc1ccccc1)C(C)C)C(C)C)C(C)C)C(C)C)C(C)C (H-[NMeV]V[NMeV][NMeV][NMeV]-NHPhenethyl) | > 100 | 56.2 |
| 4.1 | 5.7 | 25.4 | CN[C@H](C(=O)N[C@H](C(=O)N(C)[C@@H](CCSC)C(=O)N(C)[C@H](C(=O)N(C)[C@H](C(=O)NCCc1ccccc1)C(C)C)C(C)C)C(C)C)C(C)C (H-[NMeV]V[NMeM][NMeV][NMeV]-NHPhenethyl) | > 100 | 31.3 |
| 3.2 | 7.3 | 14.2 | CSCC[C@@H](C(=O)N[C@H](C(=O)N(C)[C@H](C(=O)N(C)[C@H](C(=O)NCCc1ccccc1)C(C)C)C(C)C)C(C)C)N(C)C(=O)[C@@H](N)C(C)C (H-V[NMeM]V[NMeV][NMeV]-NHPhenethyl) | 18.8 | 70.8 |
| 2.3 | 2.7 | 12.6 | CSCC[C@@H](C(=O)N(C)[C@H](C(=O)N(C)[C@H](C(=O)N(C)[C@H](C(=O)NCCc1ccccc1)C(C)C)C(C)C)C(C)C)N(C)C(=O)[C@@H](N)C(C)C (H-V[NMeM][NMeV][NMeV][NMeV]-NHPhenethyl) | 92.3 | 23.9 |
| – | – | 2.8 | O=C(Cn1ccnc1[N+](=O)[O-])NCc1ccccc1 [BENZNIDAZOLE] | – | – |
